Literature values, collected in publication PMC12932482 (Frontiers in Pharmacology, 2026).

Details: Obs, +CLA (with clarithromycin); ref Rengelshausen et al. (2003)

- AUC0–3h: 11 ng·h/mL
Structure (SMILES): C[C@H]1O[C@@H](O[C@H]2[C@@H](O)C[C@H](O[C@H]3[C@@H](O)C[C@H](O[C@H]4CC[C@@]5(C)[C@H](CC[C@@H]6[C@@H]5C[C@@H](O)[C@]5(C)[C@@H](C7=CC(=O)OC7)CC[C@]65O)C4)O[C@@H]3C)O[C@@H]2C)C[C@H](O)[C@@H]1O [digoxin]
